Experimental data: patent US8871753B2, “Macrocyclic compounds and their use as kinase inhibitors” (Incyte Corporation, priority 2008, dated 2014)
Counter-ions that a name gives are not always drawn. Like-named read-outs stand apart in the source and are kept apart here.

Experiments:
Assay type in all cases: biochemical
[1] = molecular target: T1, Recombinant Human Anaplastic Lymphoma Kinase (Homo sapiens, UniProt Q9UM73); assay: ALK HTRF kinase assay
T1 construct: purchased Invitrogen, Carlsbad, Calif
T1 sequence (Q9UM73 19-1620): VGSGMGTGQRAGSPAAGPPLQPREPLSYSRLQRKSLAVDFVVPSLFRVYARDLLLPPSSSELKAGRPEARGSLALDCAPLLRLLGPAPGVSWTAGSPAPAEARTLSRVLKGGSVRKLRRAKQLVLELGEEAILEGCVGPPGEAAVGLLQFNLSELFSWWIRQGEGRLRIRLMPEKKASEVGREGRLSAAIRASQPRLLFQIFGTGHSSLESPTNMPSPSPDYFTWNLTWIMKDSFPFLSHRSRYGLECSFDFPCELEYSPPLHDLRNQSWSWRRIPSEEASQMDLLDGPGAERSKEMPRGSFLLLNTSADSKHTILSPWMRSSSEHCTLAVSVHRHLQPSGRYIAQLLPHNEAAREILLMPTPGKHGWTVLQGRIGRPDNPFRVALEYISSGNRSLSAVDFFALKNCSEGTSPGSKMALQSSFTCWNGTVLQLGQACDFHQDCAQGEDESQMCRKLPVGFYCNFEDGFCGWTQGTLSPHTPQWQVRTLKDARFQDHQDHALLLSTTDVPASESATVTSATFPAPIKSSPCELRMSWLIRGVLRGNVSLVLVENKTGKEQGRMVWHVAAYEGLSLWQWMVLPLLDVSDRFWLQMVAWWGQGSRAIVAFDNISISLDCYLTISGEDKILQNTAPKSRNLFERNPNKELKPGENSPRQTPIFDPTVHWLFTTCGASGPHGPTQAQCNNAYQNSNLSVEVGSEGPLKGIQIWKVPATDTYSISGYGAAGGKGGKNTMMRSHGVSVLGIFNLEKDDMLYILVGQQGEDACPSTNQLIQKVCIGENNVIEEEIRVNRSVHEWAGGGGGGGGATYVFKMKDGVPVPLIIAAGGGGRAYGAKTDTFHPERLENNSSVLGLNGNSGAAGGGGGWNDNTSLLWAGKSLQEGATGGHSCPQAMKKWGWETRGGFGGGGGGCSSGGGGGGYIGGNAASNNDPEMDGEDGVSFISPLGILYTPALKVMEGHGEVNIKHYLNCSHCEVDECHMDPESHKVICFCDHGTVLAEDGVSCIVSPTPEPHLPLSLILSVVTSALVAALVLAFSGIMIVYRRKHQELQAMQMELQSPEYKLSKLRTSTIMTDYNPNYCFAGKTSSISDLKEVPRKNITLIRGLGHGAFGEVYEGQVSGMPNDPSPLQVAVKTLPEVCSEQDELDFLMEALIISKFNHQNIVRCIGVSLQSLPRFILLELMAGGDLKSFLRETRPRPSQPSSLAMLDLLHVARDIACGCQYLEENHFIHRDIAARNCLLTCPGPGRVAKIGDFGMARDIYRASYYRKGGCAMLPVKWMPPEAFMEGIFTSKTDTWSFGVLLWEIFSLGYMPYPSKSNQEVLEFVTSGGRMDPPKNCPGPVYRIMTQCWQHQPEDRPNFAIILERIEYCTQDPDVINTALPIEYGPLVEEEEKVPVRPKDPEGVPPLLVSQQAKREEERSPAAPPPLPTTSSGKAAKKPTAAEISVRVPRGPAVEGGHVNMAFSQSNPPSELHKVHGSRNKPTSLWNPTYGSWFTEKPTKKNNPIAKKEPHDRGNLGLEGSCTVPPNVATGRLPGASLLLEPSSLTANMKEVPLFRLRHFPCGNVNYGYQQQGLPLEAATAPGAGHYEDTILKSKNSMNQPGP
Method in brief: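 Compounds were incubated with recombinant human ALK and a biotin-tagged peptide substrate. Product was captured with streptavidin-APC and probed with a europium anti-phosphotyrosine antibody, and plates were read for time-resolved fluorescence. Dose-response data were fitted to derive IC50.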

[2] = molecular target: T2, human JAK2 (a.a. 828-1132) (Homo sapiens, UniProt O60674); assay: In vitro JAK kinase assay (HTRF, phosphorylation of a biotinylated peptide), JAK2
T2 construct: JAK2 (a.a. 828-1132); His tag (N); made in house; host or cells: insect cells (baculovirus)
T2 sequence (O60674 828-1132): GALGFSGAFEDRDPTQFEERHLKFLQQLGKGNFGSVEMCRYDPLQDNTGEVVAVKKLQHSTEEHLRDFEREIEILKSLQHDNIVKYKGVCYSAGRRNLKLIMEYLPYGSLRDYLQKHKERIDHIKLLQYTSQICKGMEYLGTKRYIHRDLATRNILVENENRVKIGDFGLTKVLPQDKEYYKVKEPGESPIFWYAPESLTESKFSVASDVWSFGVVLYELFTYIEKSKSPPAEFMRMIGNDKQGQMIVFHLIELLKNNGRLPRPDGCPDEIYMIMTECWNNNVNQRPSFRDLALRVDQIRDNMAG
Method in brief: (§1)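 Kinase reactions ran at room temperature for 1 h with ATP matched per isoform (JAK1 90 μM, JAK2 30 μM, JAK3 3 μM). After an EDTA stop, the phosphorylated biotin-peptide was read by HTRF using Eu-Py20 and SA-APC after 40 min binding.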

[3] = molecular target: T3, human JAK1 (a.a. 837-1142) (Homo sapiens, UniProt P23458); assay: In vitro JAK kinase assay (HTRF, phosphorylation of a biotinylated peptide), JAK1; settings: read-out: JAK1 IC50
T3 construct: human JAK1 (a.a. 837-1142); His tag (N); made in house; host or cells: insect cells (baculovirus)
T3 sequence (P23458 849-1154): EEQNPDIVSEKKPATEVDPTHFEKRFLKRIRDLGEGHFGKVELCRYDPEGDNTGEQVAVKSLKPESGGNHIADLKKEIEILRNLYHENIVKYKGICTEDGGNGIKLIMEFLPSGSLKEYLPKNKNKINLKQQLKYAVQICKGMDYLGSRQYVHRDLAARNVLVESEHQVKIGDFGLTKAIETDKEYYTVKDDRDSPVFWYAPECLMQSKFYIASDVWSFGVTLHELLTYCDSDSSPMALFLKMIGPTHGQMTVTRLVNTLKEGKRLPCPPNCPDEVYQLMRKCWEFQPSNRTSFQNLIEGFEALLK
Method in brief: as §1

[4] = molecular target: T4, human JAK3 (a.a. 781-1124) (Homo sapiens, UniProt P52333); assay: In vitro JAK kinase assay (HTRF, phosphorylation of a biotinylated peptide), JAK3
T4 construct: JAK3 (a.a. 781-1124); His tag (N); made in house; host or cells: insect cells (baculovirus)
T4 sequence (P52333 781-1124): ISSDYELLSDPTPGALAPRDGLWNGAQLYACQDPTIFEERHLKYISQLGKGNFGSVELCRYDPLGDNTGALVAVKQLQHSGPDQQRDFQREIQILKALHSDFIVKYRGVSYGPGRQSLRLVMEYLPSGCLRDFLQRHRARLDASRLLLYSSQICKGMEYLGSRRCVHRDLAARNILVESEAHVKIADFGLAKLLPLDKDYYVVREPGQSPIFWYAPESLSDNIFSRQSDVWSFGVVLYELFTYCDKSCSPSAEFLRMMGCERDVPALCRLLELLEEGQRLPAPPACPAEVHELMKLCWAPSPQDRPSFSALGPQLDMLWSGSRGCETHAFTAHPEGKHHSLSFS
Method in brief: as §1

TYK2 = TYK2 (Homo sapiens, UniProt P29597); assay: TYK2 kinase inhibition (Table A1)
Sequence of TYK2 (P29597 whole entry): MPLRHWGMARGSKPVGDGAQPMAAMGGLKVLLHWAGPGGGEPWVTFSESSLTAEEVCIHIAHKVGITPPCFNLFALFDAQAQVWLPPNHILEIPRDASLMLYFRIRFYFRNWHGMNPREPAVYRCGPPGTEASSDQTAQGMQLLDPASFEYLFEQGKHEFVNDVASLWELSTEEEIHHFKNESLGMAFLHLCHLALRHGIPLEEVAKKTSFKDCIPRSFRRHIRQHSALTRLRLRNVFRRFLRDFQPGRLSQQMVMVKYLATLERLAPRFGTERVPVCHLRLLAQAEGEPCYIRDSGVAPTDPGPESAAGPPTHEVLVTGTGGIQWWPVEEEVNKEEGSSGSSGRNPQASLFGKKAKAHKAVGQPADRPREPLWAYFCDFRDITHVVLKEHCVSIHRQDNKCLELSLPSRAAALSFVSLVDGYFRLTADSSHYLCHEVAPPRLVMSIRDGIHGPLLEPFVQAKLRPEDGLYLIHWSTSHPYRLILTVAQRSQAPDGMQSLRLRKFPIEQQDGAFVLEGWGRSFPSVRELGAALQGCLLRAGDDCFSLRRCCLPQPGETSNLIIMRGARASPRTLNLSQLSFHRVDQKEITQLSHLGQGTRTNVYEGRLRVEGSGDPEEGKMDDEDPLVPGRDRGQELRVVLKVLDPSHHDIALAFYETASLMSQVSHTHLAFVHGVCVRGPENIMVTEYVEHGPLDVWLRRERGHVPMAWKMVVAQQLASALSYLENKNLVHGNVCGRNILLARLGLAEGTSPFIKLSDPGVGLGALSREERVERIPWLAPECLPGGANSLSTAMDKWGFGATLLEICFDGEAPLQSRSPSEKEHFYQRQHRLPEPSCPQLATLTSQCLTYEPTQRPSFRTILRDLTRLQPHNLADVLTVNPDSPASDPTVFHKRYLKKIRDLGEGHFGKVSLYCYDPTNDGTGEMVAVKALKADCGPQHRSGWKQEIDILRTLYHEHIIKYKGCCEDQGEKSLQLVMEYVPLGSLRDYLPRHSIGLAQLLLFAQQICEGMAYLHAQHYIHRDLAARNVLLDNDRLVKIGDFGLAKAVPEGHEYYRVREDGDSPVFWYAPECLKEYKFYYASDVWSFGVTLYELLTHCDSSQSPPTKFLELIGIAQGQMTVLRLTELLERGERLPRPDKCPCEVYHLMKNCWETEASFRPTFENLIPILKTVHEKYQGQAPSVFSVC

[5] = Table B1, cells without percent sign
[6] = compound at 500 nM or 1 mM, 90 μM ATP
[7] = method AA1 (30 μM ATP) or AA2 (1000 μM ATP), not stated per value
[8] = method AA1 (90 μM ATP) or AA2 (1000 μM ATP), not stated per value
[9] = method AA1 (3 μM ATP) or AA2 (1000 μM ATP), not stated per value
[10] = compound at a concentration of 500 nM or 1 mM (not specified), cells shown as percentage
[11] = percentage inhibition of the example compound at a concentration of 500 nM or 1 mM (not specified which)

| SMILES | IC50 ([2]; Table B1) [nM] | IC50 ([3]; Table B1) [nM] | IC50 ([4]; Table B1) [nM] | IC50 (TYK2; Table B1) [nM] | ALK % of inhibition at a concentration of 500 nM or 1 mM [1, 6] [%] | IC50 [2, 7] [nM] | IC50 [3, 8] [nM] | IC50 [4, 9] [nM] | IC50 (TYK2) [nM] | further results |
| --- | --- | --- | --- | --- | --- | --- | --- | --- | --- | --- |
| O=C(CC1CCN(C(=O)c2cnoc2C2CC2)CC1)Nc1ccc2cc1CCc1cncc(c1)Nc1ncc(Cl)c(n1)N2 [Example A213, N-[6-Chloro-2,4,8,18,22-pentaazatetracyclo[14.3.1.1(3,7).1(9,13)]docosa-1(20),3(22),4,6,9(21),10,12,16,18-nonaen-12-yl]-2-{1-[(5-cyclopropylisoxazol-4-yl)carbonyl]piperidin-4-yl}acetamide bis(trifluoroacetate)] |  |  |  |  | 27 | > 200 | 58 | > 200 | > 200 |  |
| O=C(CC1CCNCC1)Nc1ccc2cc1CCc1cncc(c1)Nc1ncc(Cl)c(n1)N2 [Example A71, N-[6-Chloro-2,4,8,18,22-pentaazatetracyclo[14.3.1.1(3,7).1(9,13)]docosa-1(20),3(22),4,6,9(21),10,12,16,18-nonaen-12-yl]-2-piperidin-4-ylacetamide tris(trifluoroacetate)] |  |  |  |  | 26 | 69 | 19 | 112 | 57 |  |
| Clc1cnc2nc1Nc1cccc(c1)OCCc1cccc(c1)N2 [Example D8, 6-Chloro-14-oxa-2,4,8,23-tetraazatetracyclo[15.3.1.1(3,7).1(9,13)]tricosa-1(21),3(23),4,6,9(22),10,12,17,19-nonaene trifluoroacetate] |  |  |  |  |  |  |  |  |  | IC50 ([1]; Table D1, 90 μM ATP): 351 nM; IC50 ([2]; Table D1): 5.4 nM; IC50 ([3]; Table D1): 7.9 nM; IC50 ([4]; Table D1): 13 nM; IC50 (TYK2; Table D1): 19 nM |
| N#Cc1cccc(S(=O)(=O)N2CCC(CC(=O)Nc3ccc4cc3CCc3cncc(c3)Nc3ncc(Cl)c(n3)N4)CC2)c1 [Example A228, N-[6-Chloro-2,4,8,18,22-pentaazatetracyclo[14.3.1.1(3,7).1(9,13)]docosa-1(20),3(22),4,6,9(21),10,12,16,18-nonaen-12-yl]-2-{1-[(3-cyanophenyl)sulfonyl]piperidin-4-yl}acetamide bis(trifluoroacetate)] |  |  |  |  | 62 | 114 | 6.9 | > 400 | 109 |  |
| CC(=O)N1CCC(CC(=O)Nc2ccc3cc2CCc2cccc(c2)Nc2ncc(Cl)c(n2)N3)CC1 [Example A55, 2-(1-Acetylpiperidin-4-yl)-N-[6-chloro-2,4,8,22-tetraazatetracyclo[14.3.1.1(3,7).1(9,13)]docosa-1(20),3(22),4,6,9(21),10,12,16,18-nonaen-12-yl]acetamide trifluoroacetate] |  |  |  |  | 23 | 2.4 | 1.5 | 54 | 2.3 |  |
| O=C(Nc1ccc2cc1CCc1cccc(c1)Nc1ncc(Cl)c(n1)N2)C1CCNCC1 [Example A28, N-[6-Chloro-2,4,8,22-tetraazatetracyclo[14.3.1.1(3,7).1(9,13)]docosa-1(20), 3(22),4,6,9(21),10,12,16,18-nonaen-12-yl]piperidine-4-carboxamide bis(trifluoroacetate)] |  |  |  |  | 30 | 61 | 56 | 99 | 175 |  |

Continued, in another order:

| IC50 ([2]; Table B1) [nM] | IC50 ([3]; Table B1) [nM] | IC50 ([4]; Table B1) [nM] | IC50 (TYK2; Table B1) [nM] | ALK % of inhibition at a concentration of 500 nM or 1 mM [1, 6] [%] | IC50 [2, 7] [nM] | IC50 [3, 8] [nM] | IC50 [4, 9] [nM] | IC50 (TYK2) [nM] | SMILES | further results |
| --- | --- | --- | --- | --- | --- | --- | --- | --- | --- | --- |
| 92 | 97 | 144 | 275 |  |  |  |  |  | O=C(NCc1ccncc1)c1cc2cc(c1)Nc1nc(ncc1Cl)Nc1cccc(c1)CC2 [Example B11, 6-Chloro-N-(pyridin-4-ylmethyl)-2,4,8,22-tetraazatetracyclo[14.3.1.1(3,7).1(9,13)]docosa-1(20),3(22),4,6,9(21),10,12,16,18-nonaene-11-carboxamide bis(trifluoroacetate)] | IC50 [1, 5]: 2370 nM |
| 6.3 | 18 | 21 | 32 |  |  |  |  |  | Nc1cc2cc(c1)Nc1nc(ncc1Cl)Nc1cccc(c1)CC2 [Example B21, 6-Chloro-2,4,8,22-tetraazatetracyclo[14.3.1.1(3,7).1(9,13)]docosa-1(20),3(22),4,6,9(21),10,12,16,18-nonaen-11-amine bis(trifluoroacetate)] | IC50 [1, 5]: 1500 nM |
| 9.5 | 3.7 | 184 | 32 |  |  |  |  |  | CC1(C)Cc2cccc(NC(=O)Nc3ccc4cc3CCc3cccc(c3)Nc3ncc(Cl)c(n3)N4)c2O1 [Example B129, N-[6-Chloro-2,4,8,22-tetraazatetracyclo[14.3.1.1(3,7).1(9,13)]docosa-1(20),3(22),4,6,9(21),10,12,16,18-nonaen-12-yl]-N′-(2,2-dimethyl-2,3-dihydro-1-benzofuran-7-yl)urea trifluoroacetate] | ALK % of inhibition at a concentration of 500 nM or 1 mM [1, 10]: 7.3% |
| 4.6 | 1.6 | 23 | 2.1 |  |  |  |  |  | O=C(Nc1ccccc1CCl)Nc1ccc2cc1CCc1cccc(c1)Nc1ncc(Cl)c(n1)N2 [Example B108, N-[2-(Chloromethyl)phenyl]-N′-[6-chloro-2,4,8,22-tetraazatetracyclo[14.3.1.1(3,7).1(9,13)]docosa-1(20),3(22),4,6,9(21),10,12,16,18-nonaen-12-yl]urea trifluoroacetate] | ALK % of inhibition at a concentration of 500 nM or 1 mM [1, 10]: 21% |
| 4 | 6.5 | 73 | 20 |  |  |  |  |  | COCC(C)NC(=O)Nc1ccc2cc1CCc1cccc(c1)Nc1ncc(Cl)c(n1)N2 (stereo not shown) [Example B247, N-[6-Chloro-2,4,8,22-tetraazatetracyclo[14.3.1.1(3,7).1(9,13)]docosa-1(20),3(22),4,6,9(21),10,12,16,18-nonaen-12-yl]-N′-(2-methoxy-1-methylethyl)ureatrifluoroacetate] | ALK % of inhibition at a concentration of 500 nM or 1 mM [1, 10]: 7.5% |
| 61 | 24 | > 400 | 44 |  |  |  |  |  | N#Cc1ccc(N2CCN(C(=O)Nc3ccc4cc3CCc3cncc(c3)Nc3ncc(Cl)c(n3)N4)CC2)nc1 [Example B310, N-[6-Chloro-2,4,8,18,22-pentaazatetracyclo[14.3.1.1(3,7).1(9,13)]docosa-1(20),3(22),4,6,9(21),10,12,16,18-nonaen-12-yl]-4-(5-cyanopyridin-2-yl)piperazine-1-carboxamide tris(trifluoroacetate)] | ALK % of inhibition at a concentration of 500 nM or 1 mM [1, 11]: 74% |
| 700 | > 1000 | > 1000 | > 1000 |  |  |  |  |  | O=C(Nc1ccc(F)c(Cl)c1)c1cc2cc(c1)Nc1nc(ncc1Cl)Nc1cccc(c1)CC2 [Example B7, 6-Chloro-N-(3-chloro-4-fluorophenyl)-2,4,8,22-tetraazatetracyclo[14.3.1.1(3,7).1(9,13)]docosa-1(20),3(22),4,6,9(21),10,12,16,18-nonaene-11-carboxamide trifluoroacetate] | IC50 [1, 5]: > 10000 nM |
| 25 | 18 | 24 | 7.1 |  |  |  |  |  | CN(C)S(=O)(=O)NCCNC(=O)Nc1ccc2cc1CCc1cccc(c1)Nc1ncc(Cl)c(n1)N2 [Example B328, N-[6-chloro-2,4,8,22-tetraazatetracyclo[14.3.1.1(3,7).1(9,13)]docosa-1(20),3(22),4,6,9(21),10,12,16,18-nonaen-12-yl]-N′-(2-{[(dimethylamino)sulfonyl]amino}ethyl)urea trifluoroacetate] | ALK % of inhibition at a concentration of 500 nM or 1 mM [1, 11]: 16% |
